Reference: patent US20060275299A1, “Use of protein tyrosine phosphatase inhibitors for prevention and/or treatment of cancer” (priority 2002, published 2006)

Columns and labels:
Type in all cases: cell-based, human
WiDr cells = experiment: Streptolysin transfection of antisense ODN and BrdU proliferation assay; settings: BrdU, streptolysin-O, ODN 1 mM final
Sap-1 [1] = experiment: Chemical cross-linking of Sap-1 constructs in transfected COS7 cells (Western blot); settings: for cross-linking of ECD-deleted Sap-1 / cross-linking of full-length (FL) Sap-1: anti-HA Western blot, FIG. 5
Procedure: COS 7 cells were transfected with the indicated construct and left for 24 hours at 37° C. Medium was changed and a solution of BS3 (Pierce) in PBS (2.5 mg/ml) or PBS alone was added, and left for 1 hour at 4° C. The cross-linking reaction was stopped by the addition of PBS that contained 0.15 M Tris pH 7.5 for 15 minutes at 4° C. Cells were finally lysed and the protein content was used for further analysis. The treatment with DSS (Pierce) was the same except that the product was dissolved in DMSO at a concentration of 25 mM (10×). It was then diluted in PBS and cells were incubated with 0.1×DMSO.

Sap-1 [2] = experiment: DTT treatment of Sap-1 overexpressing COS7 cells, multimers on non-reducing gel
Procedure: Cells treated with DTT were serum-starved 8 hours after transfection (with PTP-Sap1 constructs or vector), and then incubated for 30 minutes in serum-free medium with various amount of DTT (Sigma). Before lysis in a buffer containing 150 mM iodoacetamide (“IODA” Sigma), cells were washed with ice cold PBS containing 50 mM iodoacetamide in order to block the free DTT. Samples were run under reducing and non-reducing conditions, with or without β-mercaptoethanol in the sample buffer, respectively.

With “AS2: antisense ODN to PTP-SAP1 mRNA: TGACCCGGGTCCAAGGCCAT (antisense TGACCCGGGTCCAAGGCCAT; chemistry not given here)” the “reduction of the proliferation” value (WiDr cells) was 20%.

For `O=C(CCCCCCC(=O)ON1C(=O)CC(S(=O)(=O)O)C1=O)ON1C(=O)CC(S(=O)(=O)O)C1=O` (stereo not drawn) [BS3, Bis-Sulfosuccinimidyl-Suberate], the “cross-linking of ECD-deleted Sap-1” value (Sap-1 [1]) was “no effect”, the “cross-linking of full-length (FL) Sap-1” value (Sap-1 [1]) was “induces the formation of a complex with high MW” and the “cross-linking of FLEX-Cterm Sap-1 construct” value (Sap-1 [1]; anti-Myc Western blot, FIG. 8A) was “efficiently cross-linked”.

For `O=C(CCCCCCC(=O)ON1C(=O)CCC1=O)ON1C(=O)CCC1=O` [DSS, Di-Succinimidyl-Suberate], the “cross-linking of membrane-associated ECD-deleted Sap-1 lacking transmembrane domain (lck myristoylation peptide)” value (Sap-1 [1]; FIG. 5B right panel) was “could not be cross-linked”, the “cross-linking of ECD-deleted Sap-1” value (Sap-1 [1]) was “but not ECD-deleted Sap-1” and the “cross-linking of full-length (FL) Sap-1” value (Sap-1 [1]) was “able to cross-link”.

`O[C@H](CS)[C@H](O)CS` (racemic) [DTT, Dithiothreitol] was tested, and the “reversibility of multimer disruption” value (Sap-1 [2]; 30 minutes at 50 mM DTT, washout, 15 minutes recovery without DTT) was “fully restored formation of the multimers” and the “multimerized Sap-1 on non-reducing gel” value (Sap-1 [2]; cells incubated 30 minutes in DTT, FIG. 6B) was “dose-dependent decrease”.
